In ChEMBL document CHEMBL1201862, “PubChem BioAssay data set” (2004):
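96-well plates; 48 h exposure; 5 concentrations. Endpoints by linear interpolation between flanking doses. Not reached: highest tested concentration assigned. GI50 = concentration required for 50% inhibition of growth.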 The source made the active and inactive calls. No stated cut-off is given here; in the data, active = GI50 up to about 1.1 µM and inactive = higher.

Tests used:
Experiment in all cases: inhibition of tumour cell growth, NCI panel, 48 h
[1] = tested on: DU-145
[2] = tested on: NCI-H23
[3] = tested on: HCT-116
[4] = tested on: MDA-MB-435
[5] = tested on: SF-268
[6] = tested on: SF-295
[7] = tested on: NCI/ADR-RES
[8] = tested on: A498
[9] = tested on: 786-0
[10] = tested on: SF-539
[11] = tested on: SK-MEL-5
[12] = tested on: COLO 205
[13] = tested on: MDA-MB-231
[14] = tested on: UO-31
[15] = tested on: CCRF-CEM
[16] = tested on: A549
[17] = tested on: U-251
[18] = tested on: M14
[19] = tested on: HCC 2998
[20] = tested on: SNB-19

SMILES: Cc1c(CNc2ccc(C(=O)NC(CC(=O)O)C(=O)O)cc2)ccc2nc(N)nc(N)c12 (stereo not given)
- GI50 [1]: < 0.01 µM (active)
- GI50 [2]: < 0.018 µM (active)
- GI50 [3]: < 0.01 µM (active)
- GI50 [4]: < 0.01 µM (active)
- GI50 [5]: < 0.01 µM (active)
- GI50 [6]: < 0.0106 µM (active)
- GI50 [7]: < 0.01 µM (active)
- GI50 [8]: 0.219 µM (active)
- GI50 [9]: < 0.164 µM (active)
- GI50 [10]: 0.0127 µM (active)
- GI50 [11]: 0.021 µM (active)
- GI50 [12]: > 9.42 µM (inactive)
- GI50 [13]: > 100 µM (inactive)
- GI50 [14]: < 0.018 µM (active)
- GI50 [15]: < 0.01 µM (active)
- GI50 [16]: < 0.01 µM (active)
- GI50 [17]: 0.0546 µM (active)
- GI50 [18]: < 0.215 µM (active)
- GI50 [19]: < 0.01 µM (active)

SMILES: Clc1ccc(Cc2nc3cc(Cl)c(Cl)cc3n2CC2CCCN3CCCCC23)cc1 (stereo not given)
- GI50 [1]: 12 µM (inactive)
- GI50 [3]: 9.68 µM (inactive)
- GI50 [4]: 13 µM (inactive)
- GI50 [5]: 8.17 µM (inactive)
- GI50 [6]: 13.4 µM (inactive)
- GI50 [7]: 12.5 µM (inactive)
- GI50 [8]: 14.4 µM (inactive)
- GI50 [9]: 11 µM (inactive)
- GI50 [10]: 10.4 µM (inactive)
- GI50 [11]: 11.3 µM (inactive)
- GI50 [12]: 10.3 µM (inactive)
- GI50 [13]: 4.13 µM (inactive)
- GI50 [14]: 0.285 µM (active)
- GI50 [16]: 13.2 µM (inactive)
- GI50 [20]: 13.9 µM (inactive)
- GI50 [17]: 8.11 µM (inactive)
- GI50 [18]: 2.65 µM (inactive)
- GI50 [19]: 3.68 µM (inactive)

SMILES: C=CCSc1nc2ccccc2c(=O)n1Cc1ccco1
- GI50 [1]: > 100 µM (inactive)
- GI50 [2]: 94.8 µM (inactive)
- GI50 [3]: 82 µM (inactive)
- GI50 [4]: > 100 µM (inactive)
- GI50 [5]: > 100 µM (inactive)
- GI50 [6]: > 100 µM (inactive)
- GI50 [7]: 39.4 µM (inactive)
- GI50 [8]: > 100 µM (inactive)
- GI50 [9]: > 100 µM (inactive)
- GI50 [10]: > 100 µM (inactive)
- GI50 [11]: 45 µM (inactive)
- GI50 [12]: > 100 µM (inactive)
- GI50 [13]: > 100 µM (inactive)
- GI50 [14]: 91.6 µM (inactive)
- GI50 [16]: 78.9 µM (inactive)
- GI50 [20]: > 100 µM (inactive)
- GI50 [17]: > 100 µM (inactive)
- GI50 [18]: > 100 µM (inactive)
- GI50 [19]: > 100 µM (inactive)

SMILES: COC(=O)C1(O)C(c2ccccc2)=NC2(C)CCCC21 (stereo not given)
- GI50 [1]: > 100 µM (inactive)
- GI50 [2]: > 100 µM (inactive)
- GI50 [3]: > 100 µM (inactive)
- GI50 [4]: > 100 µM (inactive)
- GI50 [5]: > 100 µM (inactive)
- GI50 [6]: > 100 µM (inactive)
- GI50 [7]: > 100 µM (inactive)
- GI50 [8]: > 100 µM (inactive)
- GI50 [9]: > 100 µM (inactive)
- GI50 [11]: > 100 µM (inactive)
- GI50 [12]: > 100 µM (inactive)
- GI50 [13]: > 100 µM (inactive)
- GI50 [14]: > 100 µM (inactive)
- GI50 [15]: > 100 µM (inactive)
- GI50 [16]: > 100 µM (inactive)
- GI50 [20]: > 100 µM (inactive)
- GI50 [17]: > 100 µM (inactive)
- GI50 [18]: > 100 µM (inactive)
- GI50 [19]: > 100 µM (inactive)

SMILES: O=C1C[C@@]23CCC4(CC2CCC[C@H]3O1)OCCO4 (stereo not given in full)
- GI50 [1]: > 100 µM (inactive)
- GI50 [2]: > 100 µM (inactive)
- GI50 [3]: > 100 µM (inactive)
- GI50 [4]: > 100 µM (inactive)
- GI50 [5]: > 100 µM (inactive)
- GI50 [6]: > 100 µM (inactive)
- GI50 [7]: > 100 µM (inactive)
- GI50 [8]: > 100 µM (inactive)
- GI50 [9]: > 100 µM (inactive)
- GI50 [10]: > 100 µM (inactive)
- GI50 [11]: > 100 µM (inactive)
- GI50 [12]: > 100 µM (inactive)
- GI50 [13]: > 100 µM (inactive)
- GI50 [16]: > 100 µM (inactive)
- GI50 [20]: > 100 µM (inactive)
- GI50 [17]: > 100 µM (inactive)
- GI50 [18]: > 100 µM (inactive)
- GI50 [19]: > 100 µM (inactive)

SMILES: CCCCCCCCC/C=C1\CC(CO)(COC(=O)c2ccccc2)OC1=O (stereo not given)
- GI50 [1]: 29.1 µM (inactive)
- GI50 [2]: 19.4 µM (inactive)
- GI50 [3]: 22.2 µM (inactive)
- GI50 [4]: 16 µM (inactive)
- GI50 [5]: 22.7 µM (inactive)
- GI50 [6]: 21.2 µM (inactive)
- GI50 [7]: 22.6 µM (inactive)
- GI50 [8]: 26 µM (inactive)
- GI50 [9]: 17.8 µM (inactive)
- GI50 [11]: 12.5 µM (inactive)
- GI50 [12]: 16.6 µM (inactive)
- GI50 [13]: 19.3 µM (inactive)
- GI50 [14]: 16.3 µM (inactive)
- GI50 [15]: 16.9 µM (inactive)
- GI50 [16]: 20 µM (inactive)
- GI50 [20]: 20.9 µM (inactive)
- GI50 [17]: 21.1 µM (inactive)
- GI50 [18]: 17.8 µM (inactive)
- GI50 [19]: 22.8 µM (inactive)

SMILES: COc1ccc(C23OCC(Cc4cc(OC)c(OC)cc42)C3CO)cc1OC (stereo not given)
- GI50 [1]: > 100 µM (inactive)
- GI50 [2]: > 100 µM (inactive)
- GI50 [3]: > 100 µM (inactive)
- GI50 [4]: > 100 µM (inactive)
- GI50 [6]: > 100 µM (inactive)
- GI50 [7]: > 100 µM (inactive)
- GI50 [8]: > 100 µM (inactive)
- GI50 [9]: > 100 µM (inactive)
- GI50 [10]: > 100 µM (inactive)
- GI50 [11]: > 100 µM (inactive)
- GI50 [12]: > 100 µM (inactive)
- GI50 [13]: > 100 µM (inactive)
- GI50 [14]: > 100 µM (inactive)
- GI50 [16]: > 100 µM (inactive)
- GI50 [20]: > 100 µM (inactive)
- GI50 [17]: > 100 µM (inactive)
- GI50 [18]: > 100 µM (inactive)
- GI50 [19]: > 100 µM (inactive)
